{"source": "patent EP0269017B1", "about": "“Therapeutic combination of free-radical scavenger or metabolic inhibitor and biologically active protein” (CETUS ONCOLOGY CORPORATION, priority 1986, dated 1988)", "key": {"Meth-A tumor cells [1]": {"tested_on": "Meth-A tumor cells", "test": "TNF mutein with NDGA, aspirin or both in mice with Meth-A tumor (Example 5)", "conditions": "no TNF, aspirin 30 mg/kg i.v. and/or NDGA 15.6 mg/kg i.p. every third day 3 times; for △TW: day 14", "method": "Female Balb/c mice were treated by subcutaneous implantation of Meth-A tumor cells as described in Example 1.\nDetails of the protocols are in the footnotes of Table VI. PBS was used as a control. Results were evaluated 14 days after initiation of treatment. The headings are defined in the footnotes of Table I. TABLE VI"}, "[2]": {"conditions": "Smith et al., cited from earlier work"}, "Meth-A tumor cells [3]": {"tested_on": "Meth-A tumor cells", "test": "TNF mutein and BSO in mice with Meth-A tumor (Example 3)", "type": "in vivo, Female Balb/c mice", "conditions": "BSO 1.25 g/kg alone, i.p. twice daily for ten days", "method": "Female Balb/c mice were implanted subcutaneously with Meth-A tumor cells as described in Example 1. Treatment was initiated seven days after the implantation.\nA protocol was employed wherein BSO or the TNF mutein of Example 1 alone, or BSO together with the TNF mutein, were administered. BSO was administered intraperitonally and TNF intravenously. The BSO was started 24 hours prior to TNF administration twice daily (6-8 hours between doses) for ten days and TNF was given with the second BSO dose every third day for three times. BSO excipient was used as a volume control in the TNF alone groups. PBS was used as a control. The protocol is illustrated below: [formula]\nTable III illustrates the results of this study, with the headings defined in the footnotes to Table II. The numbers in parentheses indicate the results from a repeat of the experiment."}, "Meth-A tumor cells [4]": {"tested_on": "Meth-A tumor cells", "test": "TNF mutein and aspirin in mice with Meth-A tumor (Example 4)", "method": "Female Balb/c mice were treated by subcutaneous implantation of Meth-A tumor cells as described in Example 1. Five mice per group were employed. Treatment was initiated seven days after the implantation.\nA protocol was employed wherein aspirin or the TNF mutein of Example 1 alone, or aspirin together with the TNF mutein, were administered intravenously. In the combination group, aspirin was administered daily for five days and each dose was followed 1-4 hours later by TNF. PBS was used as a control.\nThe headings are defined in the footnotes of Table I. TABLE V"}, "Meth-A tumor cells [5]": {"tested_on": "Meth-A tumor cells", "type": "in vivo, Female Balb/c mice", "conditions": "uric acid 25 mg/kg alone, i.v. once daily for five days", "method": "(§1) Female Balb/c mice were implanted subcutaneously with Meth-A tumor cells as described in Example 1.\nAn IL-2 mutein, designated des-ala₁-IL2-ser125 (with no alanine at position 1 of the mature IL-2 molecule and a serine at position 125 of the mature IL-2 molecule), was prepared by the method described in U.S. Patent No. 4,518,584, supra, isolated from refractile bodies in accordance with the procedure described in EP-A-0 206 828, published December 30, 1986, and formulated as described in U.S. Patent No. 4,604,377 in sodium dodecyl sulfate.\nTable IX indicates the results obtained when the IL-2 mutein described herein alone, uric acid alone, and various combination injections of the IL-2 mutein and uric acid were administered intravenously to five mice per group (2-3 repeats) beginning seven days after tumor implantation and once daily for five days, with the uric acid being administered immediately prior to (about 10 minutes) the IL-2 administration when both were administered. Final measurements were made on day 14. The excipient control was injected with PBS. The uric acid doses were all 25 mg/kg of mice weight."}, "[6]": {"tested_on": "methylcholanthrene-induced murine fibrosarcoma (Meth-A)", "type": "in vivo, Female Balb/c mice", "conditions": "uric acid 25 mg/kg alone, i.v. every third day three times", "source_text": "Female Balb/c mice (Charles River Breeding Laboratories, Inc., Wilmington, MA) that were all 6-8 weeks old were employed in the in vivo tests. Animals were weight matched at 20 ± 3 g, randomized at five per cage, and ear-notched. All animals were held in quarantine observation for seven days after arrival, maintained in microisolator cages (Lab Products, Inc.), and fed standard laboratory diets and drinking water ad lib.\nA mutein of human TNF-α having the first eight amino acids deleted from the N-terminus was prepared as described In U.S. Patent No. 4,677,064 Issued June 30, 1987 and Wang et al., Science (1985) 228:149-153. Briefly, TNF was induced from HL-60 cells and purified and sequenced. Then an intronless sequence encoding human TNF was prepared by producing enriched mRNA, constructing a cDNA library, selecting a probe and probing the library to recover the sequence. Then an ATG start codon was introduced immediately preceding the GTC sequence encoding N-terminal valine of the mature protein by site-directed mutagenesis. Clones were selected and strands ligated into expression vectors to obtain prokaryotic expression of the mutein. […]\nThe uric acid dose was slightly below the maximum concentration attainable without decreasing animal weight, determined in a preliminary toxicity study, and was given immediately prior to the TNF inoculation. […]"}, "Meth-A tumor cells [7]": {"tested_on": "Meth-A tumor cells", "test": "TNF mutein and vitamin C in mice with Meth-A tumor (Example 2)", "type": "in vivo, Female Balb/c mice", "conditions": "for % Control △BW / Cures (△TW=0, or no visible tumor after 21 days from start of treatment) / Deaths / % Control △TW: i.v. every third day for three injections; for % Control △BW / % Control △TW: day 14", "source_text": "as §1"}, "[8]": {"conditions": "aspirin 30 mg/kg alone, i.v., 14 days after treatment began"}, "[9]": {"conditions": "Vit.C 7 mg/kg, TNF 125 µg/kg where given"}, "[10]": {"conditions": "Vit.C 35 mg/kg, TNF 125 µg/kg where given"}, "[11]": {"conditions": "Vit.C 70 mg/kg, TNF 125 µg/kg where given"}}, "note": "Read-outs that look alike come from different tables or passages of the source."}
{"molecule": "CC(Cc1ccc(O)c(O)c1)C(C)Cc1ccc(O)c(O)c1", "note": "(stereo not drawn) [NDGA, nordihydroguaiaretic acid (4,4'-[2,3-dimethyl-1,4-butanediyl]-bis[1,2-benzenediol])]", "values": [{"measurement": "Cures", "setting": "Meth-A tumor cells [1]", "result": "0/5"}, {"measurement": "△TW", "setting": "Meth-A tumor cells [1]", "result": 50.8}]}
{"molecule": "CCCCS(=N)(=O)CCC(N)C(=O)O", "note": "(stereo not drawn) [BSO, Buthionine Sulphoximine]", "values": [{"measurement": "toxicity", "setting": "[2]; 400-800 mg/kg of BSO orally every eight hours, fifteen doses", "result": "toxic"}, {"measurement": "toxicity", "setting": "[2]; fifteen doses of 100 mg/kg/dose of BSO orally every eight hours, Proceedings of AACR, 28 (March 1987), p. 440", "result": "relatively non-toxic"}, {"measurement": "Cures (no palpable tumor on day 14)", "setting": "Meth-A tumor cells [3]", "result": "0/10"}, {"measurement": "Deaths", "setting": "Meth-A tumor cells [3]", "result": "0/10"}, {"measurement": "△TW", "setting": "Meth-A tumor cells [3]; mean values", "result": 29.8}, {"measurement": "△BW", "setting": "Meth-A tumor cells [3]; mean values of two experiments", "result": 1.19}]}
{"molecule": "CC(=O)Oc1ccccc1C(=O)O", "note": "[Aspirin]", "values": [{"measurement": "Cures", "setting": "Meth-A tumor cells [1]", "result": "0/5"}, {"measurement": "Deaths", "setting": "Meth-A tumor cells [1]; NDGA cell adds (1 tumor death d. 14), aspirin + NDGA cell adds (d. 5)", "result": "0/5"}, {"measurement": "△TW", "setting": "Meth-A tumor cells [1]", "result": 60.3}, {"measurement": "Cures", "setting": "Meth-A tumor cells [4]; aspirin 30 mg/kg alone, i.v.", "result": "0/5"}, {"measurement": "Deaths", "setting": "Meth-A tumor cells [4]; aspirin 30 mg/kg alone, i.v.", "result": "0/5"}, {"measurement": "△BW", "setting": "Meth-A tumor cells [4]; [8]", "result": 1.34}, {"measurement": "△TW", "setting": "Meth-A tumor cells [4]; [8]", "result": 66.6}, {"measurement": "toxicity of aspirin alone", "setting": "Meth-A tumor cells [4]; aspirin 30 mg/kg, single dose or once a day for five days", "result": "non-toxic"}]}
{"molecule": "O=c1[nH]c(=O)c2[nH]c(=O)[nH]c2[nH]1", "note": "[Uric acid, uric acid]", "values": [{"measurement": "Cures", "setting": "Meth-A tumor cells [5]", "result": "0/5"}, {"measurement": "△TW", "setting": "Meth-A tumor cells [5]; day 14", "result": 42.3}, {"measurement": "Cures (△TW=0, or no visible tumor after 21 days from start of treatment)", "setting": "[6]", "result": "0/14"}, {"measurement": "△TW (ratio of mean tumor volume at 14 days to start of treatment)", "setting": "[6]", "result": "51.7 ± 17.7"}]}
{"molecule": "O=C1O[C@H]([C@@H](O)CO)C(O)=C1O", "note": "[Vit.C, Ascorbic Acid]", "values": [{"measurement": "% Control △BW", "setting": "Meth-A tumor cells [7]; Vit.C 7 mg/kg, TNF 125 µg/kg immediately after where given", "result": 92, "unit": "%"}, {"measurement": "Cures (△TW=0, or no visible tumor after 21 days from start of treatment)", "setting": "Meth-A tumor cells [7]; [9]", "result": "0/5"}, {"measurement": "Deaths", "setting": "Meth-A tumor cells [7]; [9]", "result": "0/5"}, {"measurement": "% Control △TW", "setting": "Meth-A tumor cells [7]; [9]", "result": 76, "unit": "%"}, {"measurement": "Cures (△TW=0, or no visible tumor after 21 days from start of treatment)", "setting": "Meth-A tumor cells [7]; [10]", "result": "0/5"}, {"measurement": "Deaths", "setting": "Meth-A tumor cells [7]; [10]", "result": "0/5"}, {"measurement": "% Control △BW", "setting": "Meth-A tumor cells [7]; [10]", "result": 100, "unit": "%"}, {"measurement": "% Control △TW", "setting": "Meth-A tumor cells [7]; [10]", "result": 88, "unit": "%"}, {"measurement": "Cures (△TW=0, or no visible tumor after 21 days from start of treatment)", "setting": "Meth-A tumor cells [7]; [11]", "result": "0/5"}, {"measurement": "Deaths", "setting": "Meth-A tumor cells [7]; [11]", "result": "0/5"}, {"measurement": "% Control △BW", "setting": "Meth-A tumor cells [7]; [11]", "result": 96, "unit": "%"}, {"measurement": "% Control △TW", "setting": "Meth-A tumor cells [7]; [11]", "result": 74, "unit": "%"}, {"measurement": "toxicity of vitamin C alone", "setting": "Meth-A tumor cells [7]; at the three doses tested (7, 35, 70 mg/kg)", "result": "non-toxic"}]}
